B1: LKQDVRSGGPGARQLRGGLLRQAAPPGRRTRPFPHRARLHTALPTARLPGGPAAASRPAFRAAPRESGASVPGPSASPG (peptide)
chain: LKQDVRSGGPGARQLRGGLLRQAAPPGRRTRPFPHRARLHTALPTARLPGGPAAASRPAFRAAPRESGASVPGPSASPG
notes: neoantigen, alternative splicing of IL17RC

Experiments:
[1] = test system: CD8+ T cells; experiment: exogenous autologous normal donor restimulation assay, TNFα/IFNγ double positive CD8+ T cells by flow cytometry; type: cell-based, human; settings: for Fold change (CD8+) vs. DMSO: maximum CD8+ T-cell response (TNFα and IFNγ); for Fold change (CD8+) vs. DMSO / Frequency (TNFα + IFNγ + CD8 T cells): donor independent, peptide pool 10 μg/mL, healthy donors; for Frequency (TNFα + IFNγ + CD8 T cells): maximum CD8+ T-cell response; for Immunogenic (yes/no): positive if CD8+ and/or CD4+ double positive TNFα/IFNγ frequency >=3-fold over DMSO and at least 0.01%
[2] = test system: CD4+ T cells; experiment: exogenous autologous normal donor restimulation assay, TNFα/IFNγ double positive CD4+ T cells by flow cytometry; type: cell-based, human; settings: donor independent, peptide pool 10 μg/mL, healthy donors; for Fold change (CD4+) vs. DMSO: maximum CD4+ T-cell response (TNFα and IFNγ); for Frequency (TNFα + IFNγ + CD4 T cells): maximum CD4+ T-cell response

Molecule | Fold change (CD8+) vs. DMSO [1] | Frequency (TNFα + IFNγ + CD8 T cells) [1] | Immunogenic (yes/no) [1] | Fold change (CD4+) vs. DMSO [2] | Frequency (TNFα + IFNγ + CD4 T cells) [2]
RGGRGAQENSLD [FUS10, neoantigen, gene fusion SCNN1A->TNFRSF1A] | 896.55 fold | 19.5% | yes | 20.13 fold | 0.072%
RLDDSGIGNFITSLLNFISKFFCSFMGA [AS99, neoantigen, alternative splicing of FAM221A] | 160.85 fold | 1.43% | Yes | 4 fold | 0.077%
RNTLKESSKLKSSFEYWFAGFFSSSSSFFFLSRKFCFVFCLCWVESLGGVS [AS157, neoantigen, alternative splicing of ZIC4] | 51.78 fold | 0.16% | Yes | 5.53 fold | 0.083%
RRHGEVQGLLEREKTARGNPSG [AS72, neoantigen, alternative splicing of SMC1B] | 8.6 fold | 0.23% | Yes | 4.15 fold | 0.036%
RSSGLTTSSEYSTHVHMPLILHQAEQELLLLINP [AS141, neoantigen, alternative splicing of MUC16] | 3.82 fold | 0.041% | Yes | 6.94 fold | 0.045%
RYWTPATSSEYSNL [AS143, neoantigen, alternative splicing of MUC16] | 12.1 fold | 0.13% | Yes | 3.6 fold | 0.033%
SGCRLTLLSLSPVSSLGCPVPMP [AS107, neoantigen, alternative splicing of MUC16] | 2351.27 fold | 16.6% | Yes | 14.89 fold | 0.062%
SHALNWNKIGRMFRASRV [AS65, neoantigen, alternative splicing of LCN10] | 82.3 fold | 2.2% | Yes | 73.69 fold | 0.64%
SISLTDDEAELPLLDL [AS77, neoantigen, alternative splicing of EP400] | 6.59 fold | 0.12% | Yes | 20.73 fold | 0.18%
SMMEGVIQLSFKAIVCLLSCLDLLSLFRVVRHLS [AS94, neoantigen, alternative splicing of AFDN] | 1080.99 fold | 9.61% | Yes | 62.76 fold | 0.098%
SRRLKLAQGRLRGLERLHSPQPFLQPMLPQGAQGPCKAPGQGQLLGGRREPDPS [AS14, neoantigen, alternative splicing of FOXH1] | 257.47 fold | 5.6% | Yes | 59.26 fold | 0.12%
STLNITLSFDSHHGHHPVSVI [FUS6, neoantigen, gene fusion PKHD1L1->EBAG9] | 4.47 fold | 0.096% | yes | 26.51 fold | 0.11%
TKKRKQSELQQP [AS95, neoantigen, alternative splicing of DMXL2] | 2.54 fold | 0.03% | No | 2.91 fold | 0.026%
TRSLDDLEKLDTLCCKLSVHVT [AS33, neoantigen, alternative splicing of RGS12] | 6958.6 fold | 43.7% | Yes | 32.24 fold | 0.28%
VEDEEKKEAGTHFIHLTGTTVSAGVPEEMPATTLRREVF [AS91, neoantigen, alternative splicing of ACIN1] | 46.44 fold | 0.21% | Yes | 36.02 fold | 0.23%
VEDEEKKEGSMLVAPTSPPSLEAGTHFIHLTGTTVSAGVPEEMPATTLRREVF [AS93, neoantigen, alternative splicing of ACIN1] | 459.18 fold | 0.9% | Yes | 253.72 fold | 1.62%
VEDEEKKEPDGAQRHLVDIGGSHQTSHAEKFLFLLCPPVV [AS90, neoantigen, alternative splicing of ACIN1] | 28.95 fold | 0.1% | Yes | 4.93 fold | 0.044%
VIPGDLSEAHGYSFS [AS5, neoantigen, alternative splicing of PLAG1] | 2.41 fold | 0.017% | Yes | 17.14 fold | 0.18%
VLRKTAHRSTTARCSCPPWLTCWPRVAAPGALSTVAREASWWLLTTEVV [AS74, neoantigen, alternative splicing of TRPM5] | 1018.49 fold | 6.6% | Yes | 17.23 fold | 0.064%
VLTVTSTDQEYLDLSAP [AS44, neoantigen, alternative splicing of FGFR3] | 85.94 fold | 0.33% | Yes | 13.45 fold | 0.067%
VQKLKNARSLNLEDQI [AS83, neoantigen, alternative splicing of NUF2] | 10.83 fold | 0.14% | Yes | 71.14 fold | 0.061%
WSQDLQEGFSAPSRISAWFGPP [AS17, neoantigen, alternative splicing of KRT8] | 169.53 fold | 0.79% | Yes | 29.97 fold | 0.41%
YCKNDFFRSLPCHLL [AS16, neoantigen, alternative splicing of LHX1] | 2.88 fold | 0.062% | Yes | 5.43 fold | 0.011%
YGNDQWLQMRKWRHRE [FUS13, neoantigen, gene fusion MFGE8->HAPLN3] | 5.12 fold | 0.11% | yes | 3.35 fold | 0.12%
B1 | 25.75 fold | 0.36% | Yes | 10.73 fold | 0.12%

Reference: patent US11945881B2, “Neoantigens expressed in ovarian cancer and their uses” (Janssen Biotech, Inc., priority 2020, dated 2024)
